Reference: patent US20180207228A1, “PEPTIDE COMBINATIONS AND USES THEREOF FOR TREATING GRASS ALLERGY” (ALK-Abelló A/S, priority 2015, published 2018)
Where no end group is shown, it is not given here.

What was measured:
Assay type in all cases: cell-based, human
[1] = test system: allergen specific T cells; test: T cell proliferation assay (72 h) on donor derived T cell lines (TCL02/TCL03); conditions: for Proliferation % donor coverage (TCL-02 DK1): T cell lines TCL-02 DK1, 30 donors, hit criteria SI>=2, CPM>=1000; for Proliferation strength (TCL-02 DK1): T cell lines TCL-02 DK1, strength of response (average relative magnitude)
Description: Isolated PBMCs (peripheral blood mononuclear cells) obtained from the donors described in Example 2 were CD8 depleted and the T cell lines were established by stimulating the cultures with nPhl p1, mix of nPhl p 2 and […] 5 and […] established for each of the donors tested by stimulating with the mixture of above listed allergens. Grass allergic donors were recruited (cohort DK1 including 30 grass allergic individuals, DK2 including 24 grass allergic individuals and US1 including 15 grass allergic individuals). PBMCs were isolated from freshly drawn heparinized blood by gradient centrifugation on lymphoprep (Nycomed, Norway), washed twice and re-suspended in RPMI 1640 medium with HEPES and ultraglutamine (Cambrex, Belgium) supplemented with 5% v/v human AB-serum (Cambrex, Belgium), 100 units/ml penicillin, and 0.1 mg/ml streptomycin (Sigma, St Louis, USA) (referred to as 5% AB-medium). Aliquots of the isolated PBMCs were frozen and were thawed later to stimulate the T cell lines. Additionally either fresh or thawed PBMCs were used as antigen presenting cells (APCs) in the proliferation assay as described later. In some cases the PBMCs were freezed at this stage and thawed later on to continue the experiment as described in the following. The isolated PBMCs (fresh or thawed) were CD8 depleted by MACS magnetic depletion according to the manufacturer's instructions (Miltenyi Biotec, Bergisch Gladbach, Germany). On day 0 the CD8-depleted PBMCs (2×10^6/ml) were stimulated in 1 ml bulk cultures in AB medium in 24 well plates (Nunc, Denmark) with the mixture of natural allergens: nPhl p 1 (0.5 μg/ml), mix of […]). […] On day 14 cells were harvested to obtain T cell line generation 01 (referred to as TCL01). Restimulation of T cell lines were performed in AB-medium with the thawed autologous PBMCs (10^6/well, irradiated 2500 Rad), the above mixture of natural allergens (concentration as mentioned above), and PHA-P (0.5 μg/ml, Difco, Detroit, Mich., USA). rIL-2 was added at day 17, 18 and 19. On day 24 cells were harvested to obtain T cell line generation 02 (referred as TCL02). T cells were isolated, washed, counted and used for T cell proliferation assay as described later. Remaining cells were frozen for later thawing and re-stimulations. The T cell line generation 2 (TCL02) were thawed and were re-stimulated with allogeneic Epstein Bar Virus transformed lymphoblastoid cell lines (EBV) B cells (JY cells, 10^5/well, irradiated 3500 Rad), allogeneic PBMCs (10^6/well, irradiated 2500 Rad), and 0.5 μg/ml PHA-P and subsequent addition of rIL-2 at days 3-5 to generate T cell line generation 03 (referred to as TCL03). […] To summarize ELISpot experiments were carried out at day 14 (with TCL01) and proliferation assay on either day 24 (with TCL02) or at day 34 (with TCL03). […] To ensure that all T cell epitopes regions from the major and intermediate grass allergens of the grass were identified T cell screening was carried out with either overlapping peptides or selected peptides. […] These were overlapping 20-mer peptides spanning the entire full length amino acid sequence of […] and selected high binder peptides from Phl p 4 were tested. Additionally 21, 15 mer peptides were tested which were derived from various group 1 and 5 allergens. Also, 67 peptides from homologous grass allergens were tested. Finally some reference peptides and mixes thereof were also tested. The 15-mer peptides were selected on the basis of predicted and measured promiscuous HLA binding and of sequence homology between known proteins sequences from the relevant pooideae grasses and the Bermuda grass. […] To get comprehensive data from all the donors the peptides were tested in both Fluorospot/Elispot (day 14, TCL01) and proliferation (day 24, TCL02).

[2] = test system: release of IL-5 upon T cell activation; test: Fluorospot assay, IL-5 release (DK1-TCL01, US1-TCL01); conditions: head prints TCL-02 DK1; text: 25 TCL-01 DK1 lines
Procedure: (§1) Grass allergic donors were recruited (cohort DK1 including 30 grass allergic individuals, DK2 including 24 grass allergic individuals and US1 including 15 grass allergic individuals). PBMCs were isolated from freshly drawn heparinized blood by gradient centrifugation on lymphoprep (Nycomed, Norway), washed twice and re-suspended in RPMI 1640 medium with HEPES and ultraglutamine (Cambrex, Belgium) supplemented with 5% v/v human AB-serum (Cambrex, Belgium), 100 units/ml penicillin, and 0.1 mg/ml streptomycin (Sigma, St Louis, USA) (referred to as 5% AB-medium). Aliquots of the isolated PBMCs were frozen and were thawed later to stimulate the T cell lines. Additionally either fresh or thawed PBMCs were used as antigen presenting cells (APCs) in the proliferation assay as described later. In some cases the PBMCs were freezed at this stage and thawed later on to continue the experiment as described in the following. The isolated PBMCs (fresh or thawed) were CD8 depleted by MACS magnetic depletion according to the manufacturer's instructions (Miltenyi Biotec, Bergisch Gladbach, Germany). On day 0 the CD8-depleted PBMCs (2×10^6/ml) were stimulated in 1 ml bulk cultures in AB medium in 24 well plates (Nunc, Denmark) with the mixture of natural allergens: nPhl p 1 (0.5 μg/ml), mix of nPhl p 2/nPhl p 3 (1.0 μg/ml), nPhl p 4 (0.5 μg/ml), nPhl p 5 (0.5 μg/ml) and nCyn d 1 (0.5 μg/ml). Amount of 65 U, 30 U, and 30 U recombinant IL-2 (Chiron, USA) were added per well at days 5, 6 and 7, respectively. On day 14 cells were harvested to obtain T cell line generation 01 (referred to as TCL01).
(§2) On day 14 the T cells of TCL01 were isolated, washed and counted. The isolated T cells of TCL01 generation were used to perform either ELISpot or Fluorospot assay. TCL01 were further re-stimulated as described in the next paragraph for use in T cell proliferation. The aliquot for use in T cell proliferation was re-stimulated on day 14 to carry out proliferation experiment at day 24.
(§3) In the Fluorospot assays, release of IL-5 and IFN-γ upon T cell activation (of donor derived lines DK1-TCL01, and US1-TCL01) with a peptide or a peptide-mix described herein was measured by Fluorospot assay kit (Mabtech AB) and procedures were followed as per manufacturer's instructions. Briefly anti-human IL-5 and anti-human IFN-γ coated 96 well plates were obtained and blocked with 10% AB serum in RPMI. The plates were washed thoroughly and the isolated T cells were plated and incubated with either single peptides (2 μg/ml) or peptide mixes (2 μg/ml), or allergens nPhl p1, nPhl p 2, nPhl p 3, nPhl p 4, nPhl p 5, Cyn d 1 at 2 μg/ml for 20 hrs/37° C./5% CO2. After the incubation time the cells were removed by emptying the plate. Detection antibodies 7-B6-1-FS-FITC (1:200) and 5A10-biotin (2 μg/ml) were diluted in PBS-0.1% BSA and were added to the plate and incubated for 2 hours/room temperature (RT). There-after the plates were washed and anti-FITC-green (1:200) and SA-Red (1:200) diluted in PBS±0.1% BSA were added and incubated for 1 hour/RT/dark. After the incubation period the plates were washed, emptied and fluorescence enhancer solution was added for 15 minutes/RT. Plates were emptied, fluorescence enhancer solution was firmly tapped out against a clean paper, soft plastic under drain was removed and the plates were left in the dark to dry. The counts were inspected in a fluorospot reader. Hit criteria for peptide were 20 SFCs/10^6 PBMCs, p≤0.05 and poisson 0.05 stimulated cells compared to background, and a stimulation index (SI)≥2.
(§4) The peptides were identified as hits if they fulfilled the criteria as mentioned below where stimulation index (SI) value of 2 or above, Poisson value=<0.05 and P value=<0.05, SFC>=20 (IL-5/IFN-g)/10^6 cells and CPM>=1000 (proliferation) SI can be defined as [[…]/medium control] in a Fluorospot assay and [counts per minute (cpm)/medium control] in a proliferation assay.

[3] = test system: release of IFN-γ upon T cell activation; test: Fluorospot assay, IFN-γ release (DK1-TCL01, US1-TCL01); conditions: head prints TCL-02 DK1; 17 TCL-01 DK1 lines
Procedure: as §1, §2, §3, §4

[4] = test system: grass pollen allergic donor derived TCL-03 lines; test: Extended cross-reactivity study, proliferation on TCL03 DK1+DK2 (Study XR2), scoring; set-up: Cross-reactivity score: scale not given here; conditions: for cross-reactivity of homologue: 2 μg/ml, 20 donors
[5] = homologue of peptide 238 (Phl p 5), Table 48
[6] = homologue of peptide 211 (Phl p 1), Table 44
[7] = homologue of peptide 205 (Phl p 1), Table 41

Compound: CC[C@H](C)[C@H](NC(=O)[C@@H](NC(=O)[C@H](CC(=O)O)NC(=O)[C@H](CCC(=O)O)NC(=O)[C@H](C)NC(=O)[C@H](CCC(=O)O)NC(=O)[C@@H](N)[C@@H](C)O)C(C)C)C(=O)N1CCC[C@H]1C(=O)N[C@@H](CCC(=O)O)C(=O)NCC(=O)N[C@@H](Cc1c[nH]c2ccccc12)C(=O)N[C@@H](CCCCN)C(=O)N[C@@H](C)C(=O)N[C@@H](CC(=O)O)C(=O)N[C@H](C(=O)N[C@@H](CO)C(=O)N[C@@H](Cc1ccc(O)cc1)C(=O)N[C@@H](CCC(=O)O)C(=O)N[C@@H](CO)C(=O)N[C@@H](CCCCN)C(=O)O)[C@@H](C)O [compound 13]
- Proliferation % donor coverage (TCL-02 DK1) [1]: 43.33%
- Proliferation strength (TCL-02 DK1) [1]: 8.10
- IL-5-Fluorospotr % donor coverage (TCL-02 DK1) [2]: 16.00%
- IFN-gamma % donor coverage (TCL-02 DK1) [3]: 8.00%

Compound: CC[C@H](C)[C@H](NC(=O)[C@H](CCCCN)NC(=O)[C@@H](NC(=O)[C@H](CC(C)C)NC(=O)[C@@H](NC(=O)[C@@H]1CCCN1C(=O)[C@H](CCC(=O)O)NC(=O)CNC(=O)[C@H](CO)NC(=O)[C@H](CO)NC(=O)[C@H](CCC(=O)O)NC(=O)[C@@H](NC(=O)[C@@H]1CCCN1)C(C)C)C(C)C)C(C)C)C(=O)N[C@H](C(=O)N[C@@H](CC(=O)O)C(=O)N[C@@H](CCCCN)C(=O)N[C@@H](CC(N)=O)C(=O)N[C@@H](Cc1ccc(O)cc1)C(=O)N[C@@H](CCC(=O)O)C(=O)N[C@@H](Cc1c[nH]cn1)C(=O)O)[C@@H](C)O [compound 97]
- Proliferation % donor coverage (TCL-02 DK1) [1]: 10.00%
- Proliferation strength (TCL-02 DK1) [1]: 0.70
- IL-5-Fluorospotr % donor coverage (TCL-02 DK1) [2]: 4.00%
- IFN-gamma % donor coverage (TCL-02 DK1) [3]: 8.00%

Compound: CC(C)C[C@H](NC(=O)[C@H](CCC(=O)O)NC(=O)CN)C(=O)N[C@@H](CCC(=O)O)C(=O)N[C@@H](CC(C)C)C(=O)N[C@@H](CCC(N)=O)C(=O)N[C@@H](Cc1ccccc1)C(=O)N[C@@H](CCCNC(=N)N)C(=O)N[C@@H](CCCNC(=N)N)C(=O)N[C@H](C(=O)N[C@@H](CCCCN)C(=O)N[C@@H](CO)C(=O)N[C@@H](CCCCN)C(=O)N[C@@H](Cc1ccc(O)cc1)C(=O)N1CCC[C@H]1C(=O)O)C(C)C [compound 118]
- Proliferation % donor coverage (TCL-02 DK1) [1]: 65.52%
- Proliferation strength (TCL-02 DK1) [1]: 11.50
- IL-5-Fluorospotr % donor coverage (TCL-02 DK1) [2]: 25.00%
- IFN-gamma % donor coverage (TCL-02 DK1) [3]: 4.00%

Compound: GLNDKLRHYGIFDLEFRRVR-OH [compound 378]
- Cross-reactivity score ([4]; homologue of peptide 206 (Phl p 1), Table 42): 0

Compound: GSDPKKLVLDIKYTRPGDTL-OH [compound 397]
- Cross-reactivity score ([4]; homologue of peptide 217 (Phl p 3), Table 45): 1

Compound: STGGAYESYKFIPTLEAAVK-OH [compound 404]
- Cross-reactivity score [4, 5]: 5

Compound: STGGAYQSYKFIPALEAAVK-OH [compound 406]
- Cross-reactivity score [4, 5]: 4

Compound: TDMNYEQIAAYHFDLAGTAF-OH [compound 370]
- Cross-reactivity score ([4]; homologue of peptide 204 (Phl p 1), Table 40): 2

Compound: VDKIDAAYKIAATAANAAPA-OH [compound 399]
- Cross-reactivity score ([4]; homologue of peptide 235 (Phl p 5), Table 53): 5

Compound: VDKIDAAYKIAATAANAAPAN-OH [compound 417]
- Cross-reactivity score ([4]; homologue of peptide 286 (Phl p 5), Table 52): 7

Compound: WGAIWRIDPPKPLKGPFTIR-OH [compound 391]
- Cross-reactivity score [4, 6]: 0.5

Compound: WGAIWRKDSDKPIKFPVTVQ-OH [compound 396]
- Cross-reactivity score [4, 6]: 0.5

Compound: WGAIWRMDTPKALVPPFSIR-OH [compound 394]
- Cross-reactivity score [4, 6]: 1

Compound: WGAIWRVDTPDKLTGPFTVR-OH [compound 392]
- cross-reactivity of homologue [4]: considerable cross-reactivity
- Cross-reactivity score [4, 6]: 5

Compound: WGAVWRIDTPDKLTGPFTVR-OH [compound 393]
- cross-reactivity of homologue [4]: considerable cross-reactivity
- Cross-reactivity score [4, 6]: 4

Compound: WGSIWRVDTPDKLTGPFTVR-OH [compound 395]
- cross-reactivity of homologue [4]: considerable cross-reactivity
- Cross-reactivity score [4, 6]: 3

Compound: YGIFDLEFRRVRSKYQGGQK-OH [compound 384]
- Cross-reactivity score ([4]; homologue of peptide 207 (Phl p 1), Table 43): 0.5

Compound: YHFDLAGTAFGAMAKKGEEE-OH [compound 375]
- cross-reactivity of homologue [4]: very high reactivity
- Cross-reactivity score [4, 7]: 7

Compound: YHFDLSGHAFGSMAKKGEEE-OH [compound 373]
- cross-reactivity of homologue [4]: very high reactivity
- Cross-reactivity score [4, 7]: 6

Compound: YHFDLSGHAFGSMAKKGEEQ-OH [compound 372]
- cross-reactivity of homologue [4]: very high reactivity
- Cross-reactivity score [4, 7]: 7

Compound: YHFDLSGKAFGAMAKKGEED-OH [compound 371]
- Cross-reactivity score [4, 7]: 2

Compound: YHFDLSGKAFGAMAKKGEEQ-OH [compound 374]
- Cross-reactivity score [4, 7]: 3
